Results as given in patent publication US20230192700A1, “PYRAZOLOPYRAZINES ACTING ON CANCERS VIA INHIBITION OF CDK12” (Bayer Aktiengesellschaft, priority 2020, published 2023).
pIC50: −log10 of the molar value.

Columns and labels:
CDK12/CyclinK = target: T1, CDK12/CyclinK (Homo sapiens, UniProt Q9NYV4); assay: CDK12/CycK high ATP kinase assay (TR-FRET); format: biochemical; settings: 2 mM ATP (high ATP); median; read-out: CDK12/CyclinK, 2 mM ATP (high ATP), IC50 - [mol/l] (median)
T1 construct: His-CDK12 (aa Q696-S1082); made in house; host or cells: Hi-5 insect cells (baculovirus co-infection with CycK and yeast CAK1)
Method in brief: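 Human His-tagged CDK12/CycK (about 0.75 nM) preincubated with compound 15 min, then reacted 60 min at 22 °C with 2 mM ATP and 1 µM biotinylated peptide in HEPES pH 7.5 buffer. Phospho-Ser62 c-Myc epitope detected by TR-FRET (665/620 nm ratio); data normalised to no-inhibitor and no-enzyme controls.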

[1] = system: MDA-MB-231 human breast cancer cells; assay: Proliferation assay MDA-MB-231 (crystal violet); format: cell-based; settings: Homo sapiens, MDA-MB-231, 96 h, MDA-MB-231 cells, 4 days, median, read-out: Prolif-MDA MB231 IC50 - [mol/l] (median)
Method in brief: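 Cells seeded at 4,000/well in medium with 10% fetal calf serum, dosed after 24 h (0.01-10 micromol/L, 0.1% DMSO) and grown 4 days. Crystal violet staining read at 595 nm, normalised to zero-point plate (0%) and untreated cells (100%); IC50 by 4-parameter fit.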

T1 sequence (Q9NYV4 with tags, fused parts or gaps): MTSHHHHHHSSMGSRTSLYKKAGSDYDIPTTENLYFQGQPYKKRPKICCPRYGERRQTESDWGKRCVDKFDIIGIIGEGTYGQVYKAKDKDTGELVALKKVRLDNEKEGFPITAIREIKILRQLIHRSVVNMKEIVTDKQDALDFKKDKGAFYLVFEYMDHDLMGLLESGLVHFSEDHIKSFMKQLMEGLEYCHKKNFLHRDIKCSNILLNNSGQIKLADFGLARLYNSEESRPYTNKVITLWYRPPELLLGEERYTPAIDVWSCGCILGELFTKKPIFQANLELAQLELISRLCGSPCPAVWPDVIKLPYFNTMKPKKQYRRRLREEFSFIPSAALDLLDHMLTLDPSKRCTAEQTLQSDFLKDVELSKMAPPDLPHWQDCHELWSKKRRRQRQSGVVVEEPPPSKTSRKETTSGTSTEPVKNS
T1 sequence (O75909 with tags, fused parts or gaps partner limits assumed): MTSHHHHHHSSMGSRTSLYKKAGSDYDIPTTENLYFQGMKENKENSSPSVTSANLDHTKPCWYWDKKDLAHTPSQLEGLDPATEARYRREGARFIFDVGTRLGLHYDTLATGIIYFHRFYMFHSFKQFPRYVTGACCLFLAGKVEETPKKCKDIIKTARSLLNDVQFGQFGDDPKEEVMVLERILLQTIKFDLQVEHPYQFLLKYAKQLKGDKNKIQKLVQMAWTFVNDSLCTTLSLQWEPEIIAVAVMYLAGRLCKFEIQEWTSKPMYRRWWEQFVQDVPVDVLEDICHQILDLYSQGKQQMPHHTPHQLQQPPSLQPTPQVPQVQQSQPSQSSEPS

## COCCC(C)n1nc(NCc2nc3ccccc3[nH]2)c2ncc(C3CC3)nc21 (racemic) [Example 57, (±)-N-[(1H-benzimidazol-2-yl)methyl]-6-cyclopropyl-1-(4-methoxybutan-2-yl)-1H-pyrazolo[3,4-b]pyrazin-3-amine]
CDK12/CyclinK
  pIC50: < 4.70
[1]
  pIC50: 6.62
